How the values were obtained:
Type in all cases: in vivo
[1] = system: Myzus persicae (Green Peach Aphid); assay: Example B8: Myzus persicae (green peach aphid), intrinsic activity; conditions: 120 h, test rate 12 ppm, sucrose solution, 24-well, 5 days after infestation
Excerpt: Example B8: Myzus persicae (Green Peach Aphid), Intrinsic Activity
Test compounds prepared from 10,000 ppm DMSO stock solutions were applied by pipette into 24-well microtiter plates and mixed with sucrose solution. The plates were closed with a stretched Parafilm. A plastic stencil with 24 holes was placed onto the plate and infested pea seedlings were placed directly on the Parafilm. The infested plate was closed with a gel blotting paper and another plastic stencil and then turned upside down. The samples were assessed for mortality 5 days after infestation.

[2] = system: Spodoptera littoralis (Egyptian Cotton Leaf Worm); assay: Example B9: Spodoptera littoralis (Egyptian cotton leaf worm), cotton leaf discs sprayed, L1 larvae; conditions: foliar, 72 h, application rate 200 ppm, 3 days after infestation
Outline: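 Leaf discs on agar sprayed with aqueous dilutions from 10,000 ppm DMSO stock, dried, then infested with five L1 larvae. Mortality, anti-feeding and growth inhibition scored against untreated samples 3 days after infestation; control counted when any category exceeds untreated.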

[3] = system: Plutella xylostella (Diamond Back Moth); assay: Example B5: Plutella xylostella (diamond back moth), artificial diet, 24-well, eggs; conditions: 192 h, application rate 200 ppm, 8 days after infestation, read-out: effect in at least one of the two categories (mortality or growth inhibition)
Outline: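 Artificial diet in 24-well plates treated with aqueous dilutions of 10,000 ppm DMSO stocks, dried, then infested with Plutella eggs. Mortality and growth inhibition scored against untreated samples 8 days after infestation; activity rated at 200 ppm application rate.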

[4] = system: Diabrotica Balteata (Corn Root Worm); assay: Example B1: Diabrotica balteata (corn root worm), maize sprouts sprayed, L2 larvae; conditions: 96 h, application rate 200 ppm, 4 days after infestation, read-out: effect in at least one of the two categories (mortality or growth inhibition)
Outline: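 Maize sprouts on agar sprayed with aqueous dilutions of 10,000 ppm DMSO stocks, dried, then infested with 6–10 L2 larvae per well. Mortality and growth inhibition scored against untreated samples 4 days after infestation; rates of 200 ppm.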

[5] = system: Myzus persicae (Green Peach Aphid); assay: Example B6: Myzus persicae (green peach aphid), feeding/contact activity; conditions: 144 h, application rate 200 ppm, 6 days after infestation
Method: Example B6: Myzus persicae (Green Peach Aphid):Feeding/Contact Activity
Sunflower leaf discs were placed onto agar in a 24-well microtiter plate and sprayed with aqueous test solutions prepared from 10,000 ppm DMSO stock solutions. After drying, the leaf discs were infested with an aphid population of mixed ages. The samples were assessed for mortality 6 days after infestation.

[6] = system: Chilo suppressalis (Striped Rice Stemborer); assay: Example B4: Chilo suppressalis (striped rice stemborer), artificial diet, L2 larvae; conditions: 144 h, application rate 200 ppm, 6 days after infestation
Method: Example B4: Chilo suppressalis (Striped Rice Stemborer)
24-well microtiter plates with artificial diet were treated with aqueous test solutions prepared from 10,000 ppm DMSO stock solutions by pipetting. After drying, the plates were infested with L2 larvae (6-8 per well). The samples were assessed for mortality, anti-feeding effect, and growth inhibition in comparison to untreated samples 6 days after infestation. Control of Chilo suppressalis by a test sample is given when at least one of the categories (i.e. mortality, anti-feedant effect, and growth inhibition) is higher than the untreated sample.

[7] = system: Myzus persicae (Green Peach Aphid); assay: Example B13: activity against Myzus persicae (green peach aphid), 96-well sucrose solution; conditions: 120 h, application rate 50 ppm, 5 days after infestation
Outline: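 Compounds, from 10,000 ppm DMSO stocks, mixed into sucrose solution in wells under stretched Parafilm, with aphids placed on the membrane in an inverted feeding setup. Mortality scored 5 days after infestation.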

[8] = system: Spodoptera littoralis (Egyptian Cotton Leaf Worm); assay: Example B10: Spodoptera littoralis (Egyptian cotton leaf worm), uptake by lettuce roots from agar, eggs; conditions: 144 h, test rate 12.5 ppm, lettuce root uptake, 6 days after infestation, read-out: effect in at least one of the three categories (mortality, anti-feeding, or growth inhibition)
Excerpt: Example B10: Spodoptera littoralis (Egyptian Cotton Leaf Worm)
Test compounds were applied by pipette from 10,000 ppm DMSO stock solutions into 24-well plates and mixed with agar. Lettuce seeds were placed onto the agar and the multi well plate was closed by another plate which contained also agar. After 7 days the compound was absorbed by the roots and the lettuce grew into the lid plate. The lettuce leaves were then cut off into the lid plate. Spodoptera eggs were pipetted through a plastic stencil onto a humid gel blotting paper and the lid plate was closed with it. The samples were assessed for mortality, anti-feedant effect and growth inhibition in comparison to untreated samples 6 days after infestation.
The following compounds gave an effect of at least 80% in at least one of the three categories (mortality, anti-feeding, or growth inhibition) at a test rate of 12.5 ppm: […]

[9] = system: Euschistus heros (Neotropical Brown Stink Bug); assay: Example B2: Euschistus heros (neotropical brown stink bug), soybean leaves sprayed, N2 nymphs; conditions: 120 h, application rate 200 ppm, 5 days after infestation, read-out: effect in at least one of the two categories (mortality or growth inhibition)
Method: Example B2: Euschistus heros (Neotropical Brown Stink Bug)
Soybean leaves on agar in 24-well microtiter plates were sprayed with aqueous test solutions prepared from 10,000 ppm DMSO stock solutions. After drying the leaves were infested with N2 nymphs. The samples were assessed for mortality and growth inhibition in comparison to untreated samples 5 days after infestation.
The following compounds gave an effect of at least 80% in at least one of the two categories (mortality or growth inhibition) at an application rate of 200 ppm: […]

[10] = system: Plutella xylostella (Diamondback Moth); assay: Example B14: activity against Plutella xylostella (diamondback moth), 96-well artificial diet; conditions: 216 h, application rate 500 ppm, 9 days after infestation
Outline: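 Diet in 96-well plates was treated with aqueous dilutions of 10,000 ppm DMSO stocks, dried, and infested with 30 eggs per well via a netted lid; hatching L1 larvae fed on the diet. Mortality scored 9 days after infestation.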

[11] = system: Thrips tabaci (Onion Thrips); assay: Example B12: Thrips tabaci (onion thrips), feeding/contact activity; conditions: 144 h, application rate 200 ppm, mixed ages, 6 days after infestation
Method: Example B12: Thrips tabaci (Onion Thrips) Feeding/Contact Activity
Sunflower leaf discs were placed on agar in 24-well microtiter plates and sprayed with aqueous test solutions prepared from 10,000 ppm DMSO stock solutions. After drying the leaf discs were infested with a thrips population of mixed ages. The samples were assessed for mortality 6 days after infestation.

CC(NC(=O)c1cc(C2CC2(F)F)cc(C(F)(F)F)c1)c1ncnn1-c1ncccn1 (stereo not shown) [P87, 3-(2,2-difluorocyclopropyl)-N-[1-(2-pyrimidin-2-yl-1,2,4-triazol-3-yl)ethyl]-5-(trifluoromethyl)benzamide]
≥ 80%: mortality at 12 ppm [1] | percent control (mortality, anti-feedant effect or growth inhibition) at 200 ppm [2] | percent effect (mortality or growth inhibition) at 200 ppm [3] | percent effect (mortality or growth inhibition) at 200 ppm [4] | mortality at 200 ppm [5] | percent control (mortality, anti-feedant effect or growth inhibition) at 200 ppm [6] | mortality at 50 ppm [7] | percent effect (mortality, anti-feeding or growth inhibition) at 12.5 ppm [8] | percent effect (mortality or growth inhibition) at 200 ppm [9]

CC(c1ncnn1-c1ncccn1)N(C)C(=O)c1cc(C(F)(F)F)cc(C(F)(F)C2CC2)c1 (stereo not shown) [P58, 3-[cyclopropyl(difluoro)methyl]-N-methyl-N-[1-(2-pyrimidin-2-yl-1,2,4-triazol-3-yl)ethyl]-5-(trifluoromethyl)benzamide]
≥ 80%: mortality at 12 ppm [1] | percent control (mortality, anti-feedant effect or growth inhibition) at 200 ppm [2] | percent effect (mortality or growth inhibition) at 200 ppm [3] | percent effect (mortality or growth inhibition) at 200 ppm [4] | percent control (mortality, anti-feedant effect or growth inhibition) at 200 ppm [6] | mortality at 50 ppm [7] | percent effect (mortality, anti-feeding or growth inhibition) at 12.5 ppm [8] | mortality at 500 ppm [10] | percent effect (mortality or growth inhibition) at 200 ppm [9]

C[C@@H](c1ncnn1-c1ncccn1)N(CC1CC1)C(=O)c1cc(C2CC2)cc(C(F)(F)F)c1 [P73, 3-cyclopropyl-N-(cyclopropylmethyl)-N-[(1S)-1-(2-pyrimidin-2-yl-1,2,4-triazol-3-yl)ethyl]-5-(trifluoromethyl)benzamide]
≥ 80%: mortality at 12 ppm [1] | percent control (mortality, anti-feedant effect or growth inhibition) at 200 ppm [2] | percent effect (mortality or growth inhibition) at 200 ppm [3] | percent effect (mortality or growth inhibition) at 200 ppm [4] | mortality at 200 ppm [5] | percent control (mortality, anti-feedant effect or growth inhibition) at 200 ppm [6] | percent effect (mortality or growth inhibition) at 200 ppm [9]

CC(c1ncnn1-c1ncccn1)N(CC1CC1)C(=O)c1cc(C2CC2)nc(C(F)(F)F)c1 (stereo not shown) [P55, 2-cyclopropyl-N-(cyclopropylmethyl)-N-[1-(2-pyrimidin-2-yl-1,2,4-triazol-3-yl)ethyl]-6-(trifluoromethyl)pyridine-4-carboxamide]
≥ 80%: mortality at 12 ppm [1] | percent effect (mortality or growth inhibition) at 200 ppm [3] | percent effect (mortality or growth inhibition) at 200 ppm [4] | mortality at 50 ppm [7] | percent effect (mortality, anti-feeding or growth inhibition) at 12.5 ppm [8] | mortality at 500 ppm [10] | percent effect (mortality or growth inhibition) at 200 ppm [9]

CC(NC(=O)c1cc(C(F)(F)F)cc(C(F)(F)C2CC2)c1)c1ncnn1-c1ncccn1 (stereo not shown) [P59, 3-[cyclopropyl(difluoro)methyl]-N-[1-(2-pyrimidin-2-yl-1,2,4-triazol-3-yl)ethyl]-5-(trifluoromethyl)benzamide]
≥ 80%: mortality at 12 ppm [1] | percent control (mortality, anti-feedant effect or growth inhibition) at 200 ppm [2] | percent effect (mortality or growth inhibition) at 200 ppm [3] | percent effect (mortality or growth inhibition) at 200 ppm [4] | percent control (mortality, anti-feedant effect or growth inhibition) at 200 ppm [6] | mortality at 50 ppm [7] | percent effect (mortality, anti-feeding or growth inhibition) at 12.5 ppm [8] | mortality at 500 ppm [10] | percent effect (mortality or growth inhibition) at 200 ppm [9]

CC(NC(=O)c1cc(C2CC2)nc(C(F)(F)F)c1)c1ncnn1-c1ncccn1 (stereo not shown) [P54, 2-cyclopropyl-N-[1-(2-pyrimidin-2-yl-1,2,4-triazol-3-yl)ethyl]-6-(trifluoromethyl)pyridine-4-carboxamide]
≥ 80%: mortality at 12 ppm [1] | percent control (mortality, anti-feedant effect or growth inhibition) at 200 ppm [2] | percent effect (mortality or growth inhibition) at 200 ppm [3] | percent effect (mortality or growth inhibition) at 200 ppm [4] | mortality at 50 ppm [7] | percent effect (mortality, anti-feeding or growth inhibition) at 12.5 ppm [8] | mortality at 500 ppm [10] | percent effect (mortality or growth inhibition) at 200 ppm [9]

CC(c1ncnn1-c1ncccn1)N(CC1CC1)C(=O)c1cc(Cl)cc(C2(C#N)CC2)n1 (stereo not shown) [P29, 4-chloro-6-(1-cyanocyclopropyl)-N-(cyclopropylmethyl)-N-[1-(2-pyrimidin-2-yl-1,2,4-triazol-3-yl)ethyl]pyridine-2-carboxamide]
≥ 80%: mortality at 200 ppm [11] | mortality at 12 ppm [1] | percent effect (mortality or growth inhibition) at 200 ppm [3] | percent effect (mortality or growth inhibition) at 200 ppm [4] | mortality at 50 ppm [7] | mortality at 500 ppm [10] | percent effect (mortality or growth inhibition) at 200 ppm [9]

CC(c1ncnn1-c1ncccn1)N(CC1CC1)C(=O)c1cc(C(F)(F)F)cc(C2(C)CC2C(F)(F)F)c1 (stereo not shown) [P43, N-(cyclopropylmethyl)-3-[1-methyl-2-(trifluoromethyl)cyclopropyl]-N-[1-(2-pyrimidin-2-yl-1,2,4-triazol-3-yl)ethyl]-5-(trifluoromethyl)benzamide]
≥ 80%: mortality at 12 ppm [1] | percent control (mortality, anti-feedant effect or growth inhibition) at 200 ppm [2] | percent effect (mortality or growth inhibition) at 200 ppm [3] | percent effect (mortality or growth inhibition) at 200 ppm [4] | percent control (mortality, anti-feedant effect or growth inhibition) at 200 ppm [6] | mortality at 50 ppm [7] | percent effect (mortality, anti-feeding or growth inhibition) at 12.5 ppm [8] | mortality at 500 ppm [10]

Source: patent US20210267203A1, “PESTICIDALLY ACTIVE AZOLE-AMIDE COMPOUNDS” (SYNGENTA PARTICIPATIONS AG, priority 2018, published 2021)
